Assay results: ChEMBL document CHEMBL1671707, “Mycobacterium tuberculosis dihydrofolate reductase is not a target relevant to the antitubercular activity of isoniazid” (Antimicrob Agents Chemother, 2010)
Converted amounts (≈) assume the structure as drawn. The source made the active and inactive calls. No cut-off for these calls is given here.

What was measured:
[1] = test system: Mycolicibacterium smegmatis; experiment: Antimicrobial activity against Mycobacterium smegmatis MC2 4517 by broth microdilution method; type: functional
[2] = test system: Mycolicibacterium smegmatis; experiment: Ratio of MIC for Mycobacterium smegmatis overexpressing dfrA gene to MIC for wild-type Mycobacterium smegmatis; type: functional
[3] = test system: Mycolicibacterium smegmatis; experiment: Antimicrobial activity against Mycobacterium smegmatis MC2 5072 overexpressing dhfr gene assessed as growth inhibition at 10 ug/ml; type: functional, organism-based
[4] = test system: Mycolicibacterium smegmatis; experiment: Antimicrobial activity against Mycobacterium smegmatis MC2 5071 overexpressing InhA gene assessed as growth inhibition at 10 ug/ml; type: functional, organism-based
[5] = test system: Mycolicibacterium smegmatis; experiment: Antimicrobial activity against Mycobacterium smegmatis MC2 5072 overexpressing dhfr gene assessed as growth inhibition at 120 ug/ml; type: functional, organism-based
[6] = test system: Mycolicibacterium smegmatis; experiment: Antimicrobial activity against Mycobacterium smegmatis MC2 5071 overexpressing InhA gene assessed as growth inhibition at 120 ug/ml; type: functional, organism-based
[7] = test system: Mycolicibacterium smegmatis; experiment: Antimicrobial activity against Mycobacterium smegmatis MC2 5069 assessed as growth inhibition at 50 ug/ml; type: functional, organism-based
[8] = test system: Mycolicibacterium smegmatis; experiment: Antimicrobial activity against Mycobacterium smegmatis MC2 5069 assessed as growth inhibition at 150 ug/ml; type: functional, organism-based
[9] = test system: Mycolicibacterium smegmatis; experiment: Antimicrobial activity against Mycobacterium smegmatis MC2 5071 overexpressing InhA gene assessed as growth inhibition at 50 ug/ml; type: functional, organism-based
[10] = test system: Mycolicibacterium smegmatis; experiment: Antimicrobial activity against Mycobacterium smegmatis MC2 5071 overexpressing InhA gene assessed as growth inhibition at 150 ug/ml; type: functional, organism-based
[11] = test system: Mycobacterium tuberculosis; experiment: Antimicrobial activity against wild-type Mycobacterium tuberculosis H37Rv by MTT assay; type: functional
Dihydrofolate reductase = target: T1, Dihydrofolate reductase (Mycobacterium tuberculosis, UniProt P9WNX1); experiment: Inhibition of Mycobacterium tuberculosis dihydrofolate reductase
T1 sequence (P9WNX1 whole entry): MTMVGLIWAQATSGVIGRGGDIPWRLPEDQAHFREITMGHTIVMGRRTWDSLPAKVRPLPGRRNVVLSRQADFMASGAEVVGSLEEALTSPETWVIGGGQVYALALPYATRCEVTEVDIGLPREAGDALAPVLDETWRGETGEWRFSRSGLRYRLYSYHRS

Escherichia coli = experiment: Antimicrobial activity against Escherichia coli expressing katG and dfrA gene; type: functional, organism-based

Structure (SMILES) | MIC [1] [µg/mL] | Ratio [2] | Activity [3] | Activity [4] | Activity [5] | Activity [6] | Activity [7] | Activity [8] | Activity [9] | Activity [10] | MIC [11] [µg/mL] | Ki (Dihydrofolate reductase) [nM] | Activity (Escherichia coli)
CCc1cc(C(N)=S)ccn1 [ETHIONAMIDE] | 9.4 (≈ 56.5 µM) | – | – | – | – | – | – | – | – | – | – | – | –
NNC(=O)c1ccncc1 [ISONIAZID] | 4.7 (≈ 34.3 µM) | 2 | Active | inactive | Active | inactive | Active | Active | Active | Active | 0.06 (≈ 0.438 µM) | 1 | inactive
